One may read the EC50 as the midpoint of the concentration-response curve. The low end stands for higher potency in that assay, the high end for lower potency in that assay. By IC50 is commonly meant the concentration that inhibits the measured activity by half.

This is an account of results in ChEMBL document CHEMBL1131776, “Potent, elective human beta3 adrenergic receptor agonists containing a substituted indoline-5-sulfonamide pharmacophore” (Bioorg Med Chem Lett, 1999).

The target of test [1] is T1, Beta-3 adrenergic receptor (Homo sapiens, UniProt P13945). Put plainly: In vitro agonistic activity against cloned human beta-3 adrenergic receptor […] increase in cAMP in CHO cells. Format: functional, cell-based.
Target sequence in this assay (P13945 whole entry): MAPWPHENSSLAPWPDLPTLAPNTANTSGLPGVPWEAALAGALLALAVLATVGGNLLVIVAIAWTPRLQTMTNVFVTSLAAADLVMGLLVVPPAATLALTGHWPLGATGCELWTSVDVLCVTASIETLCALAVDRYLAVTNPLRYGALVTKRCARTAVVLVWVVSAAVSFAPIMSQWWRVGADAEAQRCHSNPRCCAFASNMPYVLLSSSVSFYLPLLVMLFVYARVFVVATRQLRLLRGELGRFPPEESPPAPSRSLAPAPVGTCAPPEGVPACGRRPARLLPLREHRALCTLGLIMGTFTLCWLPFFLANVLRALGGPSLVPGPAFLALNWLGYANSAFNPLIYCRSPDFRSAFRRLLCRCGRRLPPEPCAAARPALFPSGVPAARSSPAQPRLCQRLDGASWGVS
In test [2] the target is Beta-2 adrenergic receptor (Homo sapiens, UniProt P07550). Put plainly: biochemical.
Beta-2 adrenergic receptor, sequence (P07550 whole entry): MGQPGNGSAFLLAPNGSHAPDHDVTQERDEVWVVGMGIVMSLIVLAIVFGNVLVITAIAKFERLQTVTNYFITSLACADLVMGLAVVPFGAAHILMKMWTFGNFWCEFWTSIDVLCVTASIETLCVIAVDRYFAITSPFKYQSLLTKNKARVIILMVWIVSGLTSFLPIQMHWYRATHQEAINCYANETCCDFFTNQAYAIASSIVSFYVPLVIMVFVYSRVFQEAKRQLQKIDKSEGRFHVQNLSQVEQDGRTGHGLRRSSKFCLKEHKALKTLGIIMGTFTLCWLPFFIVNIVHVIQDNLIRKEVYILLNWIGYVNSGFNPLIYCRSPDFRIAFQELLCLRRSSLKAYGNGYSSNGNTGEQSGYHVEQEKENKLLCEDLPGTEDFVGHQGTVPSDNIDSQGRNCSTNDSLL
Description: In vitro binding affinity towards cloned human beta-2 adrenergic receptor using [125I]iodocyanopindolol as radioligand to stimulate increase in cAMP in CHO cells
In test [3] the target is Beta-1 adrenergic receptor (Homo sapiens, UniProt P08588). Description: biochemical.
Beta-1 adrenergic receptor, sequence (P08588 whole entry): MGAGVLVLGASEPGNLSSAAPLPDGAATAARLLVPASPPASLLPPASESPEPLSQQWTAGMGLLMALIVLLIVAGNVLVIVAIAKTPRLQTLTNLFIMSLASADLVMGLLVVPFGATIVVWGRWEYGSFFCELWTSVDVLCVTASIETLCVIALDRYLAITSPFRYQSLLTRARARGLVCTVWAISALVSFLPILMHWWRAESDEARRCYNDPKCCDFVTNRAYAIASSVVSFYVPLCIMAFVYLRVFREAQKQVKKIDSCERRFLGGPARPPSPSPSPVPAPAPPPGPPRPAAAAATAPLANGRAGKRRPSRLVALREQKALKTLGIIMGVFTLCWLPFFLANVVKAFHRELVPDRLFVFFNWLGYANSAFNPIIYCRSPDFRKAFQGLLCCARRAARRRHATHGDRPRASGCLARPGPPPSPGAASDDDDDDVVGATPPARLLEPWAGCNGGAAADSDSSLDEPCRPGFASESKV
Description: In vitro binding affinity towards cloned human beta-1 adrenergic receptor using [125I]iodocyanopindolol as radioligand to stimulate increase in cAMP in CHO cells
Test [4] concerns the target T1, Beta-3 adrenergic receptor. Description: Adenylyl cyclase activation as percent maximal stimulation with isoproterenol at 100 nM. Format: functional.
Target sequence in this assay (P13945 whole entry, looked up): as the sequence (P13945 whole entry) above

Turning to `O=S(=O)(Nc1ccccc1)c1ccc2c(c1)CCN2c1cccc(CCCC2CCCC2)c1`, the EC50 in test [1] was determined as 5 nM. For the same compound, the IC50 was 7500 nM in test [2] and 4000 nM in test [3].
Consider `CCCCCCc1csc(N2CCc3cc(S(=O)(=O)Nc4ccccc4)ccc32)n1`, for which the EC50 in test [1] was 0.9 nM. In addition, the IC50 in test [2] amounted to 510 nM; in test [3] it was 1400 nM.
For `CCCCCCCCc1cnc(N2CCc3cc(S(=O)(=O)Nc4ccccc4)ccc32)o1` the same measures were 3.7 nM, 180 nM and 4200 nM.
`O=S(=O)(Nc1ccccc1)c1ccc2c(c1)CCN2c1noc(CCCC2CCCC2)n1`: the Activation in test [4] was found to be 20%. Besides, the IC50 came out at 42 nM in test [2] and 330 nM in test [3].
For `CCCCCCNC(=O)N(C)c1ccc(S(=O)(=O)Nc2ccc(CCNC[C@H](O)c3cccnc3)cc2)cc1` the same measures were 20%, 10000 nM and 10000 nM.
In test [1], `CCCCCCc1cccc(N2CCc3cc(S(=O)(=O)Nc4ccccc4)ccc32)c1` gave an EC50 of 1.8 nM. In addition, the IC50 worked out at 460 nM in test [2] and 700 nM in test [3].
In test [1], `CCCCCCCCc1csc(N2CCc3cc(S(=O)(=O)Nc4ccccc4)ccc32)n1` returned an EC50 of 0.93 nM. Besides, the IC50 was found to be 1300 nM in test [2] and 2600 nM in test [3].
Regarding `CCCCCCCCc1cccc(N2CCc3cc(S(=O)(=O)Nc4ccccc4)ccc32)c1`, the EC50 in test [1] was found to be 1.3 nM. Besides, the IC50 in test [2] was 1500 nM; in test [3] it was 2500 nM.
The matching figures for `CCCCCCC(=O)N1CCc2cc(S(=O)(=O)Nc3ccccc3)ccc21`: 88 nM, 2000 nM and 10000 nM.
The compound `CN(C(=O)N1CCc2cc(S(=O)(=O)Nc3ccccc3)ccc21)C(C)(C)Cc1ccccc1` had an Activation in test [4] of 17%. Further, the IC50 in test [2] is 8000 nM; in test [3], 3000 nM.
In test [1], `CCCCCCCCC(=O)N1CCc2cc(S(=O)(=O)Nc3ccccc3)ccc21` returned an EC50 of 7 nM. Moreover, the IC50 in test [2] was 1000 nM; in test [3] it was 1800 nM.
`CCCCCCCCc1nc(N2CCc3cc(S(=O)(=O)Nc4ccccc4)ccc32)no1` returned a half-maximal effective concentration (EC50) in test [1] of 31 nM. Further, the figures for the IC50 in test [2] and in test [3] were 100 nM and 580 nM, respectively.
For `O=S(=O)(Nc1ccccc1)c1ccc2c(c1)CCN2c1cccc(CCCC2CCCC2)n1` the same measures were 1.7 nM, 450 nM and 3000 nM.
In turn, `CCCCCCc1ccnc(N2CCc3cc(S(=O)(=O)Nc4ccccc4)ccc32)n1` came in with an EC50 in test [1] of 5.1 nM. For the same compound, the figures for the IC50 in test [2] and in test [3] were 620 nM and 1400 nM, respectively.
The matching figures for `CCCCCCCCc1csc(Nc2ccc(S(=O)(=O)Nc3ccccc3)cc2)n1`: 0.8 nM, 340 nM and 650 nM.
The matching figures for `CCCCCCN(C)C(=O)N1CCc2cc(S(=O)(=O)Nc3ccccc3)ccc21`: 47 nM, 6500 nM and 10000 nM.
The matching figures for `CCCCCCCCNC(=O)N1CCc2cc(S(=O)(=O)Nc3ccccc3)ccc21`: 0.73 nM, 630 nM and 1000 nM.
In the case of `CCCCCCCCc1csc(N(C)c2ccc(S(=O)(=O)Nc3ccccc3)cc2)n1`, in test [1], the EC50 turned out to be 5.5 nM. For the same compound, the IC50 was 440 nM in test [2] and 1500 nM in test [3].
For `CCCCCCc1cccc(N2CCc3cc(S(=O)(=O)Nc4ccccc4)ccc32)n1` the same measures were 1.2 nM, 140 nM and 900 nM.
The matching figures for `CCCCCCc1ccc(N2CCc3cc(S(=O)(=O)Nc4ccccc4)ccc32)nc1`: 1.6 nM, 240 nM and 1800 nM.
For `CCCCCCNC(=O)N1CCc2cc(S(=O)(=O)Nc3ccccc3)ccc21` the same measures were 6.9 nM, 36000 nM and 40000 nM.
In the case of `CNC(=O)N1CCc2cc(S(=O)(=O)Nc3ccccc3)ccc21`, the EC50 in test [1] came to 55 nM. The figures for the IC50 in test [2] and in test [3] were 7300 nM and 100000 nM, respectively.
Take `CCCCCCCCc1cccc(N2CCc3cc(S(=O)(=O)Nc4ccccc4)ccc32)n1`: it took 1 nM to reach a half-maximal effect in test [1] (EC50). The figures for the IC50 in test [2] and in test [3] were 63 nM and 220 nM, respectively.
For `Cc1csc(N2CCc3cc(S(=O)(=O)Nc4ccccc4)ccc32)n1` the same measures were 8.1 nM, 750 nM and 4000 nM.
For `CCCCCCc1nc(N2CCc3cc(S(=O)(=O)Nc4ccccc4)ccc32)no1` the same measures were 13 nM, 52 nM and 600 nM.
Consider `O=S(=O)(Nc1ccc(CCNC[C@H](O)COc2ccc(O)cc2)cc1)c1ccc2c(c1)CCN2`, for which the response in test [1] was half-maximal at 0.65 nM (EC50). This lies in the sub-nanomolar range.
In test [1], `CN(CCc1ccccc1)C(=O)N1CCc2cc(S(=O)(=O)Nc3ccccc3)ccc21` returned an EC50 of 55 nM. Also, the figures for the IC50 in test [2] and in test [3] were 2500 nM and 10000 nM, respectively.
For `CCCCCCCCc1ccnc(N2CCc3cc(S(=O)(=O)Nc4ccccc4)ccc32)n1` the same measures were 2.4 nM, 530 nM and 1000 nM.
The matching figures for `CCCCCCCCN(C)C(=O)N1CCc2cc(S(=O)(=O)Nc3ccccc3)ccc21`: 18 nM, 1000 nM and 970 nM.
Compound `CN(C)C(=O)N1CCc2cc(S(=O)(=O)Nc3ccccc3)ccc21` yielded an Activation in test [4] of 8%. Moreover, the figures for the IC50 in test [2] and in test [3] were 7000 nM and 9000 nM, respectively.
With `O=S(=O)(Nc1ccccc1)c1ccc2c(c1)CCN2c1nc(CCCC2CCCC2)cs1`, the EC50 in test [1] was 3.2 nM. Further, the IC50 was determined as 900 nM in test [2] and 4000 nM in test [3].
